Key:
[1] = target: T1, Protein-glutamine gamma-glutamyltransferase (Homo sapiens) (UniProt P21980); experiment: (§1) Irreversible inhibition of human TG2 using AL5 as substrate by colorimetric assay
T1 sequence (whole entry): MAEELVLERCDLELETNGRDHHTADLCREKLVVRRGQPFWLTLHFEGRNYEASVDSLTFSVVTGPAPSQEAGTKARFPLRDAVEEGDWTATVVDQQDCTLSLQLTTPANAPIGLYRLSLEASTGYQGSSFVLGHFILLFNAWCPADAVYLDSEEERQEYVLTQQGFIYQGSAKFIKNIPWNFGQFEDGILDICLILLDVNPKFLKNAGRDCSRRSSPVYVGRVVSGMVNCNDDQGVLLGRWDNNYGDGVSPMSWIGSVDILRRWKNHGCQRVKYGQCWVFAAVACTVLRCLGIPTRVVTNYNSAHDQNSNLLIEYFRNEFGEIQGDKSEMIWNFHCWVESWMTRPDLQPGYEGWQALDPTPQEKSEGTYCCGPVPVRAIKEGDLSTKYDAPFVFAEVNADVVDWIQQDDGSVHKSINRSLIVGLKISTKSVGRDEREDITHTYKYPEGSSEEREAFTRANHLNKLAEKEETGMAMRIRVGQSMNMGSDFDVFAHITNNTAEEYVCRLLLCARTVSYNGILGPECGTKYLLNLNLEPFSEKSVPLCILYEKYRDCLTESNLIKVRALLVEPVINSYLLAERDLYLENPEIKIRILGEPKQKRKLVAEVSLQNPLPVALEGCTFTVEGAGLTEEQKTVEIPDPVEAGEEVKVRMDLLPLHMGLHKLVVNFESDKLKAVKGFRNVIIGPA

[2] = target: T2, Protein-glutamine gamma-glutamyltransferase (Homo sapiens, UniProt P21980); experiment: as §1
T2 sequence (P21980 whole entry): T1 sequence (whole entry)

[3] = target: T3, Protein-glutamine gamma-glutamyltransferase K (Homo sapiens) (UniProt P22735); experiment: Inactivation of human TG1 using AL5 as substrate by colorimetric assay
T3 sequence (whole entry): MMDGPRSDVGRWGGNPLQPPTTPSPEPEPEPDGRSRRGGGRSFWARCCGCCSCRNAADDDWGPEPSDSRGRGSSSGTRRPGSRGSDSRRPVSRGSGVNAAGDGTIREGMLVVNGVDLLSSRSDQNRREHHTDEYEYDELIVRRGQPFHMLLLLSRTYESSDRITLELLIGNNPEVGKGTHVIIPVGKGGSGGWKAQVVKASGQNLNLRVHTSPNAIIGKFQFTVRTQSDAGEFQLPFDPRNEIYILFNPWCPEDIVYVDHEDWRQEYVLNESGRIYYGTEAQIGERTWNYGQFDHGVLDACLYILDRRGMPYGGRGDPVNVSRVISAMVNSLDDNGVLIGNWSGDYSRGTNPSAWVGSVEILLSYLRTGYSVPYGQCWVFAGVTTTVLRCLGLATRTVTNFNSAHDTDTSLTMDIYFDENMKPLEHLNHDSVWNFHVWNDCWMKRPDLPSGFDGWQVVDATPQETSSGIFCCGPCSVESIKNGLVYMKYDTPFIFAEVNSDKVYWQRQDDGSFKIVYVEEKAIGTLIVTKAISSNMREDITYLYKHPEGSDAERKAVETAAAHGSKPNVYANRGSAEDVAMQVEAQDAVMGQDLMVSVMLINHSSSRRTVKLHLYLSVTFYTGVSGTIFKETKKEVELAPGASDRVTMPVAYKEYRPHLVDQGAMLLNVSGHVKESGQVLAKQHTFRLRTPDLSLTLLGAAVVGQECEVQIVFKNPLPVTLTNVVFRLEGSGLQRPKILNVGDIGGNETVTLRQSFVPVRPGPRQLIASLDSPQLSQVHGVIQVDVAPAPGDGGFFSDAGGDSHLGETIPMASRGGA

[4] = target: T4, Protein-glutamine gamma-glutamyltransferase E (Homo sapiens) (UniProt Q08188); experiment: Inactivation of activated human TG3 assessed as rate constant of enzyme inactivation using FRET- quenched A101 as substrate by fluorescence assay
T4 sequence (whole entry): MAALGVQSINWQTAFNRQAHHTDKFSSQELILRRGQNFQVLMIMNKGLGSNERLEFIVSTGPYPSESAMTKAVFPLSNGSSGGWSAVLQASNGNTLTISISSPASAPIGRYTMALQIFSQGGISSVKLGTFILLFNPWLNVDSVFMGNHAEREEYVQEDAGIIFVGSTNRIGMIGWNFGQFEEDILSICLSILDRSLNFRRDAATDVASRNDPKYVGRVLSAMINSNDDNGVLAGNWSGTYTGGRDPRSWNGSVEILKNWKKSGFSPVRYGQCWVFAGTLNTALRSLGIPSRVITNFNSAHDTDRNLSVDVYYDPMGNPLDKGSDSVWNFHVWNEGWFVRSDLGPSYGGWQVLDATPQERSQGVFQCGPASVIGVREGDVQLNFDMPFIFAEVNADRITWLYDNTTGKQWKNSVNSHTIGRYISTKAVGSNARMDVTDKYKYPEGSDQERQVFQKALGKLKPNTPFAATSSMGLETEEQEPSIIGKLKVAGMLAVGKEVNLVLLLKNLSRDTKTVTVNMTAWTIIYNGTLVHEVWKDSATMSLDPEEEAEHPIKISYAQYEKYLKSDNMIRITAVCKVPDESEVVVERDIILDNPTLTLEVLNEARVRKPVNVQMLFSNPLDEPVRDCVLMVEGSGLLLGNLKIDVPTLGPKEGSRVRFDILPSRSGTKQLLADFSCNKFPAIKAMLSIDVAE

[5] = Inhibition of human ECS cells invasion by using Engelbreth-Holm-Swarm mouse tumor matrigel measured after 18 hrs by DAPI staining-based flourescence microscopy; type: functional, cell-based
[6] = Inhibition of guinea pig liver TG2 using Z-Gln-Gly/DMPDA as substrate preincubated for 3 mins followed by protein addition; parameters: species or system Cavia porcellus
Cavia porcellus = organism: Cavia porcellus; experiment: Ratio of Kinact to Ki for guinea pig liver TG2
[7] = Antimigratory activity in human ECS cells at 20 uM treated for 2 hrs measured after 30 hrs by DAPI staining-based inverted fluorescent microscopy relative vehicle-treated control; type: functional
Homo sapiens = organism: Homo sapiens; experiment: Selectivity ratio of Kobs for human TG2 to Kobs for activated human TG3

SMILES: C=CC(=O)NCCCC[C@H](NC(=O)OCc1ccccc1)C(=O)NCCOCCOCCNS(=O)(=O)c1cccc2c(N(C)C)cccc12
- Kinact [1]: 2.6 min⁻¹
- Ki [2]: 33.9 µM
- K [3]: 78.9 ×10⁻³ /min
- K [4]: 1.01 ×10⁻³ /min
- EC50 [5]: > 20 µM
- Ki [6]: 29 µM
- Ratio (Cavia porcellus): 1.4 ×10⁴ /M/min
- Activity [7]: 50%
- Selectivity ratio (Homo sapiens): 390

— ChEMBL document CHEMBL4017513, “Structure-Activity Relationships of Potent, Targeted Covalent Inhibitors That Abolish Both the Transamidation and GTP Binding Activities of Human Tissue Transglutaminase” (J Med Chem, 2017)
